Data as given in patent publication US10507212B2, “Method for use of homopiperazinium compounds in the treatment of cancer” (UNIVERSITÉ LAVAL, priority 2014, dated 2019).

What was measured:
[1] = system: A549 human lung carcinoma cells; assay: In vivo antitumor assay, A549 xenograft in Balb/c nude mice (Example 29); settings: day 49; ASM-024 45 mg/kg s.c. daily day 14-38; taxol 10 mg/kg i.p. days 21, 28, 35; cisplatin 2.5 mg/kg i.p. days 28, 35
Procedure: For the in vivo antitumor assay, A549 human lung carcinoma cells (3.5×106) in 50% F12K medium (Matrigel) were implanted subcutaneously in the flank of Balb/c nude mice (nu/nu, Charles River) and allowed to grow for 14 days. ASM-024 was administered daily by subcutaneous delivery at the dose of 45 mg/kg from day 14 to day 38 post cell inoculation. Taxol was administrated intraperitoneally at the dose of 10 mg/kg on days 21, 28 and 35. Cisplatin was administrated intraperioneally at the dose of 2.5 mg/kg on days 28 and 35. From day 14 to day 49, tumor length and width were measured once or twice a week with a caliper and tumor volume calculated according to the formula Volume=(width2×length)/2.

A549 lung adenocarcinoma = assay: In vitro combination treatment with cisplatin or taxol, A549 (MTT); type: cell-based, human; settings: A549, 3 days; increasing concentrations added to suboptimal doses of ASM-024
Procedure: The concomitant effect of ASM-024 and cisplatin or taxol on the proliferation of A549 lung adenocarcinoma and MCF7 breast cancer adenocarcinoma cells was assessed in vitro.
A549 cells (3.0×10^3cells/well) were first cultured with 10% FBS in F12K media and MCF7 cells (10×10^3 cells/well) with 10% FBS in EMEM media for 24 hours to allow cells to adhere to the plate at 37° C. in a humidified incubator with 5% CO2. The next day, the media was replaced in medium containing appropriate drug concentrations […] for an additional 72 hours. Cell viability was quantified using the MTT colorimetric assay (M2128, Sigma) at 575-690 nm.

Row | Compound | A549 human carcinoma tumor growth (tumor volume) [1] | inhibition of in vitro proliferation, combination (A549 lung adenocarcinoma)
1 | CC(=O)O[C@H]1C(=O)[C@@]2(C)[C@H]([C@H](OC(=O)c3ccccc3)[C@]3(O)C[C@H](OC(=O)[C@H](O)[C@@H](NC(=O)c4ccccc4)c4ccccc4)C(C)=C1C3(C)C)[C@]1(OC(C)=O)CO[C@@H]1C[C@@H]2O [taxol, Paclitaxel] | decrease in A549 human carcinoma tumor growth | potentiated the inhibition of in vitro proliferation
2 | N.N.[Cl][Pt][Cl] [Cisplatin] | decrease in A549 human carcinoma tumor growth | potentiated the inhibition of in vitro proliferation
